Experimental data taken from the supplement of paper PMC10307832.

Key:
Assay in all cases: relative viability (nuclei count vs DMSO), 5 days (fraction); higher = more cells survive
Dabrafenib + Olaparib = compound: CC(C)(C)c1nc(-c2cccc(NS(=O)(=O)c3c(F)cccc3F)c2F)c(-c2ccnc(N)n2)s1 [Dabrafenib] + O=C(c1cc(Cc2n[nH]c(=O)c3ccccc23)ccc1F)N1CCN(C(=O)C2CC2)CC1 [Olaparib] (partner 8 µM)
Method in brief: (§1)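 Relative viability was taken as the ratio of nuclei in treated wells to nuclei in vehicle wells. Lung cancer cell lines in 1536-well plates received compounds by pin tool one day after seeding, either one drug alone or a fixed anchor-drug dose plus five library-drug doses (not always all listed) in √10 steps. Nuclei were counted on 4× images after 5 days of treatment, and values are medians of duplicate plates.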

VX-702 + Tozasertib = compound: NC(=O)c1ccc(N(C(N)=O)c2c(F)cccc2F)nc1-c1ccc(F)cc1F [VX-702] + Cc1cc(Nc2cc(N3CCN(C)CC3)nc(Sc3ccc(NC(=O)C4CC4)cc3)n2)n[nH]1 [Tozasertib] (partner 0.1 µM)
Method in brief: as §1

Dabrafenib + Lapatinib = compound: CC(C)(C)c1nc(-c2cccc(NS(=O)(=O)c3c(F)cccc3F)c2F)c(-c2ccnc(N)n2)s1 [Dabrafenib] + CS(=O)(=O)CCNCc1ccc(-c2ccc3ncnc(Nc4ccc(OCc5cccc(F)c5)c(Cl)c4)c3c2)o1 [Lapatinib] (partner 2 µM)
Method in brief: as §1

VX-702 + Decitabine = compound: NC(=O)c1ccc(N(C(N)=O)c2c(F)cccc2F)nc1-c1ccc(F)cc1F [VX-702] + Nc1ncn([C@H]2C[C@H](O)[C@@H](CO)O2)c(=O)n1 [Decitabine] (partner 2 µM)
Method in brief: as §1

Row | Cell Line | relative viability (Dabrafenib + Olaparib; first compound 0.003 µM) | relative viability (Dabrafenib + Olaparib; first compound 0.009487 µM) | relative viability (Dabrafenib + Olaparib; first compound 0.03 µM) | relative viability (Dabrafenib + Olaparib; first compound 0.09487 µM) | relative viability (Dabrafenib + Olaparib; first compound 0.3 µM) | relative viability (VX-702 + Tozasertib; first compound 0.02 µM) | relative viability (VX-702 + Tozasertib; first compound 0.2 µM) | relative viability (VX-702 + Tozasertib; first compound 0.6325 µM) | relative viability (VX-702 + Tozasertib; first compound 2 µM) | relative viability (Dabrafenib + Lapatinib; first compound 0.003 µM) | relative viability (Dabrafenib + Lapatinib; first compound 0.009487 µM) | relative viability (Dabrafenib + Lapatinib; first compound 0.03 µM) | relative viability (Dabrafenib + Lapatinib; first compound 0.09487 µM) | relative viability (Dabrafenib + Lapatinib; first compound 0.3 µM) | relative viability (VX-702 + Decitabine; first compound 0.02 µM) | relative viability (VX-702 + Decitabine; first compound 0.2 µM) | relative viability (VX-702 + Decitabine; first compound 0.6325 µM) | relative viability (VX-702 + Decitabine; first compound 2 µM)
1 | NCI-H520 | 0.312 | 0.317 | 0.305 | 0.271 | 0.354 | 0.443 | 0.385 | 0.434 | 0.55 | 0.856 | 0.867 | 0.642 | 0.816 | 0.727 | 0.571 | 0.513 | 0.444 | 0.418
2 | NCI-H596 | – | 0.68 | 0.675 | 0.651 | 0.752 | 0.8 | 0.859 | 0.87 | 1.09 | 0.994 | 1.11 | 0.814 | 1.04 | 1.05 | 1.3 | 1.55 | 1.15 | 1.16
3 | NCI-H647 | 0.661 | 0.558 | 0.449 | 0.557 | 0.607 | 0.323 | 0.248 | 0.208 | 0.436 | – | 1.24 | 0.812 | 1.01 | 0.893 | 0.475 | 0.383 | 0.335 | 0.306
4 | NCI-H650 | – | 0.381 | 0.341 | 0.189 | 0.287 | 0.662 | – | 0.801 | 0.893 | – | 1.1 | 0.623 | 0.514 | 0.435 | 0.385 | 0.344 | 0.3 | 0.324
5 | NCI-H661 | 0.739 | 0.685 | 0.746 | 0.75 | 0.773 | 0.35 | 0.345 | 0.352 | 0.35 | 0.471 | 0.486 | 0.364 | 0.458 | 0.455 | 0.567 | 0.583 | 0.58 | 0.591
6 | NCI-H727 | 0.554 | 0.656 | – | 0.612 | 0.796 | 0.738 | 0.809 | 0.572 | 0.665 | – | 0.811 | 0.658 | 0.755 | 0.817 | 0.827 | 0.914 | 0.753 | 0.822
7 | NCI-H838 | 0.772 | 0.792 | 0.735 | 0.68 | 0.873 | 0.233 | 0.285 | 0.303 | 0.291 | 0.816 | 1.17 | 0.871 | 0.855 | 1.1 | 0.455 | 0.471 | 0.429 | 0.534
8 | NCI-H1355 | – | 0.763 | 0.769 | 0.639 | 0.718 | 0.497 | 0.514 | 0.593 | 0.631 | – | 1.11 | 1.03 | – | 1.19 | 0.348 | 0.33 | 0.366 | 0.318
9 | NCI-H1395 | – | 0.497 | 0.473 | 0.456 | 0.495 | 0.686 | 0.767 | 0.75 | 0.966 | – | 1.02 | 0.821 | 0.85 | 0.973 | 0.664 | 0.714 | 0.728 | 0.64
10 | NCI-H1437 | 0.651 | 0.62 | 0.643 | 0.592 | 0.618 | 0.412 | 0.432 | 0.405 | 0.45 | 0.687 | 0.756 | 0.911 | 0.785 | 0.816 | 0.618 | 0.516 | 0.544 | 0.607
11 | NCI-H1650 | 0.827 | 0.721 | 0.764 | 0.794 | 1.01 | 0.353 | 0.305 | 0.353 | 0.494 | 0.632 | 1.12 | 0.639 | 0.953 | 1.11 | 0.477 | 0.422 | 0.44 | 0.46
12 | NCI-H1651 | 0.177 | 0.186 | 0.176 | 0.147 | 0.165 | 0.728 | 0.753 | 0.624 | 0.829 | 0.849 | 0.818 | 0.84 | 0.938 | 0.834 | 0.571 | 0.573 | 0.649 | 0.615
13 | NCI-H1666 | 0.783 | 0.753 | 0.776 | 0.746 | 0.799 | 0.593 | – | 0.586 | 0.583 | 0.547 | – | 0.623 | 0.629 | 0.745 | 0.655 | 0.691 | 0.751 | 0.536
14 | NCI-H1734 | – | 0.69 | 0.504 | 0.465 | 0.557 | 0.277 | 0.248 | 0.236 | 0.222 | – | 1.02 | 0.629 | 0.747 | 0.785 | 0.493 | 0.484 | 0.477 | 0.47
15 | NCI-H1755 | 0.845 | 0.819 | 0.788 | 0.859 | 0.886 | 0.599 | 0.592 | 0.597 | 0.653 | 0.957 | 1.07 | 0.928 | 1 | 0.986 | 0.699 | 0.732 | 0.703 | 0.797
16 | NCI-H1793 | – | 1.06 | – | 0.612 | 1.09 | 0.344 | 0.309 | 0.248 | 0.322 | 0.522 | 1 | 0.598 | 0.741 | 0.612 | 0.545 | – | 0.449 | 0.458
17 | NCI-H1915 | 0.276 | 0.233 | 0.214 | 0.215 | 0.268 | 0.411 | 0.43 | 0.42 | 0.46 | 1.04 | 0.985 | 0.781 | 0.654 | 0.673 | 0.275 | 0.284 | 0.258 | 0.268
18 | NCI-H1944 | 0.402 | 0.41 | 0.382 | 0.393 | 0.402 | 0.252 | 0.245 | 0.252 | 0.253 | 0.835 | 0.924 | 0.613 | 0.898 | 0.788 | 0.431 | 0.437 | 0.46 | 0.431
19 | NCI-H1975 | 0.723 | 0.758 | 0.706 | 0.681 | 0.718 | 0.792 | 0.724 | 0.713 | 0.934 | 0.914 | 0.858 | 0.881 | 0.84 | 0.786 | 0.367 | 0.35 | 0.344 | 0.362
20 | NCI-H1993 | 1.17 | 1.1 | 1.09 | 1.06 | 1.31 | 0.525 | 0.591 | 0.623 | 0.806 | 0.696 | 0.729 | 0.754 | 0.713 | 0.882 | 0.529 | 0.603 | 0.54 | 0.578
21 | NCI-H2009 | 0.638 | 0.626 | 0.625 | 0.439 | 0.516 | 0.765 | 0.729 | 0.728 | 0.988 | 0.311 | 1 | 0.872 | 0.606 | 0.484 | 0.392 | 0.435 | 0.454 | 0.399
22 | NCI-H2023 | 0.478 | 0.432 | 0.492 | 0.46 | 0.458 | 0.264 | 0.308 | 0.296 | 0.38 | 0.617 | 1.09 | 0.979 | 0.79 | 0.961 | 0.23 | 0.219 | 0.211 | 0.231
23 | NCI-H2085 | 0.759 | 0.769 | 0.823 | 0.71 | 0.854 | 0.847 | 0.762 | 0.864 | 0.789 | 0.694 | 0.821 | 0.58 | 0.74 | 0.784 | 0.568 | 0.575 | 0.627 | 0.524
24 | NCI-H2087 | – | 0.535 | 0.541 | 0.385 | 0.532 | 0.277 | 0.236 | 0.284 | 0.281 | 0.689 | 1.08 | 0.769 | 0.77 | 0.785 | 0.288 | 0.242 | 0.254 | 0.294
25 | NCI-H2126 | 0.906 | 0.884 | 0.871 | 0.878 | 0.946 | 0.816 | 0.859 | 0.783 | 1.04 | 0.735 | 0.783 | 0.75 | 0.842 | 0.89 | 0.547 | 0.567 | 0.566 | 0.595
26 | NCI-H2170 | 0.653 | 0.605 | 0.544 | 0.5 | 0.625 | 0.722 | 0.696 | 0.753 | 0.871 | 0.263 | 0.265 | 0.268 | 0.291 | 0.311 | 0.444 | 0.415 | 0.466 | 0.486
27 | NCI-H2347 | – | 0.629 | 0.552 | 0.553 | 0.599 | 0.592 | – | 0.505 | 0.521 | 0.631 | 1.02 | 0.918 | 0.897 | 0.89 | 0.643 | 0.606 | 0.683 | 0.639
28 | NCI-H2405 | – | 0.838 | 0.674 | 0.804 | 0.89 | 0.816 | 0.724 | 0.717 | 0.726 | – | 0.804 | – | 0.853 | 0.937 | 0.727 | 0.709 | 0.709 | 0.759
29 | NCI-H3122 | 0.631 | 0.605 | 0.647 | 0.508 | 0.562 | 0.328 | 0.34 | 0.379 | 0.49 | 1.05 | 1.08 | 1.04 | 0.959 | 1.08 | 0.435 | 0.371 | 0.417 | 0.435
30 | PC-3 [JPC-3] | – | 1.24 | 1.18 | 1.07 | 1.24 | 0.883 | 0.896 | 0.922 | 0.957 | 0.448 | 0.509 | 0.416 | 0.434 | 0.429 | 0.804 | 0.888 | 0.888 | 0.853
